In patent US20090298691A1, “METHODS AND COMPOSITIONS FOR CONTROL OF AQUATIC WEEDS USING HERBICIDAL COMBINATIONS WITH FLURIDONE” (priority 2008, published 2009):

Columns and labels:
[1] = test system: Lake Okahumpka hydrilla (fluridone resistant biotype); assay: Example 1: hydrilla in 14 L cylinders, 25 days of exposure, total stem length and fresh weight; type: in vivo, Hydrilla verticillata; details: 12 ppb (combination 6 ppb each)
Description: (§1) Apical sections of hydrilla were collected from Rainbow River and Lake Okahumpka, Fla. Hydrilla in Lake Okahumpka is known to have developed increased tolerance to fluridone (FRH). The biotype from Rainbow River has never been exposed to fluridone and is presumably fluridone susceptible. Apical sections were planted in potting soil amended with Osmocote fertilizer in small pots (13.5 cm length×3.75 cm diameter). A 2.54 cm sand layer was placed over the top of the potting soil. Pots containing each biotype of hydrilla were placed into 14 L acrylic cylinders and allowed to establish slight growth prior to treatment. Cylinders were then treated with penoxsulam (P) or fluridone (F) at 12 ppb, and fluridone+penoxsulam (1:1 ratio) at 6 ppb (3 ppb each) and 12 ppb (6 ppb each). All treatments were replicated 4 times. After 25 days of exposure, plants were harvested and total stem length and fresh weights were measured.

[2] = test system: CAIP hydrilla (fluridone susceptible biotype); assay: Example 2: hydrilla in 14 L cylinders, c.a. 30 days exposure, plant weights; type: in vivo, Hydrilla verticillata; details: 6 ppb
Description: (§2) Hydrilla was collected from three sources in Florida; two representing fluridone resistant biotypes (Lake Okahumpka and Lake Cypress) and one fluridone susceptible biotypes (CAIP). Apical sections containing a single meristem were planted in small pots (13.5 cm length×3.75 cm diameter) containing potting soil and amended with Osmocote fertilizer. Each biotype were placed into 14 L cylinders and allowed to establish growth for 6-days prior to treatment. Treatments were replicated three times and included: controls, penoxsulam 6 and 12 ppb; fluridone 6 and 12 ppb; combinations of fluridone+penoxsulam (1:1 ratio) at 12 ppb (6 ppb each). Plants were exposed for c.a. 30 days and then harvested to determine plant weights.

[3] = test system: Lake Cypress hydrilla (fluridone resistant biotype); assay: as above; type: in vivo, Hydrilla verticillata; details: for biomass reduction: 6 ppb
Description: as §2

[4] = test system: Lake Okahumpka hydrilla (fluridone resistant biotype); assay: as above; type: in vivo, Hydrilla verticillata; details: for biomass reduction: 6 ppb
Description: as §2

[5] = test system: fluridone resistant hydrilla biotype (Lake Cypress); assay: Example 3: hydrilla in 14 L cylinders, 56 days exposure, dry weights; type: in vivo, Hydrilla verticillata; details: 3 ppb
Description: (§3) Hydrilla was collected from two sources in Florida representing a fluridone resistant biotype (Lake Cypress) and a fluridone susceptible biotype. Apical sections containing a single meristem were planted in small pots (13.5 cm length×3.75 cm diameter) containing potting soil and amended with Osmocote fertilizer. Each biotype were placed into 14 L cylinders and allowed to establish growth prior to treatment. Treatments were replicated three times and included: controls, penoxsulam or fluridone at 3 and 6 ppb; combinations of fluridone+penoxsulam (1:1 ratio) at 6 ppb (3 ppb of each). Plants were exposed for 56 days and then harvested to determine dry weights. At 14 days after treatment (DAT) net photosynthesis from exposed plant tissue was measured.

[6] = test system: fluridone susceptible hydrilla biotype; assay: as above; type: in vivo, Hydrilla verticillata; details: 3 ppb
Description: as §3

[7] = test system: Hydrilla (FR), fluridone-resistant hydrilla; assay: Example 7: greenhouse mesocosm selectivity trial, 60-day exposure, aboveground shoot biomass; type: in vivo, Hydrilla verticillata; details: total parts per billion, non-linear regression
Description: (§4) Five different native aquatic plants were acquired from a Florida supplier (Aquatic Plants of Florida, Sarasota, Fla.). These species were jointed spikerush (Eleocharis interstincta), spatterdock (Nuphar advena), soft-stem bulrush (Scirpus validus), and maidencane (Panicum hemitomon), and tapegrass (Vallisneria americana). The final native species in the trial—Egyptian panicgrass or Kissimmee ‘Knotgrass’ (Paspalidium geminatum)—and fluridone-resistant hydrilla were collected from West Lake Tohopekaliga (Osceola County, FL). Transplanted tissue for each native species included both young fresh shoot growth and a portion of root stock/rhizome. Hydrilla was planted as 30 cm sections of fresh apical shoot growth. All plants were transplanted into commercial retail topsoil amended with slow-release granular 14-14-14 fertilizer at rate of 2.5 g fertilizer per kg soil. Spatterdock rhizomes were transplanted into 11.4L plastic garden pots, while all other species were transplanted into 1.9-L pots. Soil in each pot was capped with a layer of sand. […]
(§5) Three weeks after transplanting, herbicide stock solutions were used to apply either fluridone or penoxsulam alone or in combination. […] Four replicate pots of each species were harvested at time of treatment to quantify pre-treatment aboveground biomass. […]

[8] = test system: jointed spikerush; assay: as above; type: in vivo, Eleocharis interstincta; details: total parts per billion, non-linear regression
Description: as §4, §5

[9] = test system: maidencane; assay: as above; type: in vivo, Panicum hemitomon; details: total parts per billion, non-linear regression
Description: as §4, §5

[10] = test system: panicgrass (Egyptian panicgrass, Kissimmee 'Knotgrass'); assay: as above; type: in vivo, Paspalidium geminatum; details: total parts per billion, non-linear regression
Description: as §4, §5

[11] = test system: soft-stem bulrush; assay: as above; type: in vivo, Scirpus validus; details: total parts per billion, non-linear regression
Description: as §4, §5

[12] = test system: spatterdock; assay: as above; type: in vivo, Nuphar advena; details: total parts per billion, non-linear regression
Description: as §4, §5

[13] = test system: tapegrass; assay: as above; type: in vivo, Vallisneria americana; details: total parts per billion, non-linear regression
Description: as §4, §5

[14] = test system: target plant; details: Sonar A.S. label; cited from earlier work
[15] = test system: hydrilla; details: literature; cited from earlier work
[16] = test system: Rainbow River hydrilla (fluridone susceptible); assay: Example 1: hydrilla in 14 L cylinders, 25 days of exposure, total stem length and fresh weight; type: in vivo; details: Hydrilla verticillata, 600 h, 12 ppb (combination 6 ppb each), read-out: stem length inhibited compared to control plants
Description: as §1

[17] = test system: hydrilla; assay: Contact time of penoxsulam alone under operational field use; type: in vivo, Hydrilla verticillata
[18] = test system: Eurasian watermilfoil; assay: Example 5: Eurasian watermilfoil in 12 L tanks, 40 day exposure, root and shoot dry weights; type: in vivo; details: 75 ppb; 40 days
Description: Apical sections (12 to 15 cm in length) of Eurasian watermilfoil (EWM) were taken from Sweetwater Lake, Ind. and from culture and planted into small pots (13.5 cm length×3.75 cm diameter) containing Wallace Farm® topsoil amended with 14-14-14 slow release Osmocote® fertilizer (˜2.5 g Osmocote/kg soil). Approximately 5 to 7 cm of the apical section extended above the sediment at planting, and a sand cap was placed over the potting soil (˜2 cm deep). Plants were then transferred to a 12 L acrylic tanks filled with well water. Plants were allowed to grow for 7 days before the following treatment was initiated in triple replicate:
Plants were harvested at 40 days. At harvest, plants were rinsed free of algae, roots and shoots were separated, and placed in paper sacks in a drying oven for 4 days at 70° C. temperature, and dry weights were determined (FIG. 6).

Row | Compound | biomass reduction [2] | biomass reduction [3] | biomass reduction [4] | reduction in biomass compared to controls [5] | reduction in biomass compared to controls [6] | Calculated EC50 on shoot biomass [7] | Calculated EC50 on shoot biomass [8] | Calculated EC50 on shoot biomass [9] | Calculated EC50 on shoot biomass [10] | Calculated EC50 on shoot biomass [11] | Calculated EC50 on shoot biomass [12] | Calculated EC50 on shoot biomass [13] | further results
1 | 1-methyl-3-phenyl-5-3-(trifluoromethyl)phenyl-4(1H)-pyridinone [Fluridone] | 60% | minimal affect | minimal affect | no effect | ~50% | 10.1 ppb | 28.3 ppb | 4.4 ppb | 14.4 ppb | 5.3 ppb | 2.5 ppb | 4.4 ppb | effect on fluridone tolerant biotype (stem length, biomass), in words [1]: little effect; stem length inhibited compared to control plants [1]: ~10%; effect on biomass, in words ([3]; up to 12 ppb): generally not affected; effect on biomass, in words ([4]; up to 12 ppb): generally not affected; minimum time maintained in contact with a target plant [14]: ≥ 45 days
2 | O=C(O)C1C2CCC(O2)C1C(=O)O (centres unmarked) [Endothall, 7-oxabicyclo[2.2.1]heptane-2,3-dicarboxylic acid] |  |  |  |  |  |  |  |  |  |  |  |  | contact with hydrilla to achieve effective control [15]: less than 72 hours
3 | COc1cnc(OC)n2nc(NS(=O)(=O)c3c(OCC(F)F)cccc3C(F)(F)F)nc12 [Penoxsulam] | 63% | 57% | 53% | ~40% | ~40% | 4.4 ppb | 12.8 ppb | 52.5 ppb | 267.6 ppb | 8.9 ppb | 12.5 ppb | 9.6 ppb | inhibition at 0.012 ppm [16]: 50 to 60%; inhibition at 0.012 ppm ([1]; Hydrilla verticillata, 600 h, read-out: stem length inhibited compared to control plants): ~40%; contact time to achieve full hydrilla control [17]: greater than 4 months
4 | O=C(O)COc1nc(Cl)c(Cl)cc1Cl [Triclopyr, 3,5,6-trichloro-2-pyridyloxyacetic acid] |  |  |  |  |  |  |  |  |  |  |  |  | above ground biomass reduction [18]: 96%; below ground biomass reduction [18]: 74%
